“And” between values parts separate entries of the source, which are not always exact repeats. Equal values may be shown once.
Assay: Drug-excipient compatibility study
Settings: binary drug/excipient mixture, 40° C./75% RH open bottle; sodium salt
Description: This study was designed to evaluate the effects of various diluents, binders, disintegrants, lubricants, buffering agents, and antioxidants on the stability of the drug substance.

Cc1cc2c(cc1CC(=O)c1sccc1S(=O)(=O)[N-]c1onc(C)c1Cl)OCO2.[Na+] [Sitaxsentan Sodium, N-(4-chloro-3-methyl-5-isoxazolyl)-2-[2-methyl-4,5-(methylenedioxy)phenylacetyl]-thiophene-3-sulfonamide, sodium salt]
Assay (%) T = 2 Weeks: 98.0%
Total Related Substanes (%) T = 2 Weeks: 0.19% and 0.18%
Total Related Substanes (%) T = 4 Weeks: 0.24% and 0.12%

— US20080076812A1 (priority 2006, published 2008)
